Results as given in patent EP4813993A1, “COMPOUND, PREPARATION METHOD THEREFOR, AND USE THEREOF” (Sichuan Kelun Pharmaceutical Research Institute Co., Ltd., priority 2023, dated 2025).

Columns and labels:
[1] = system: CFA-induced rat inflammatory pain model; experiment: CFA-induced rat inflammatory pain model, Von Frey test; assay type: in vivo, SD rats; conditions: SD rats CFA, Mean + SEM, n = 10
Experimental: Experimental Example 9: Pharmacodynamic effect study of compounds in CFA-induced rat inflammatory pain model Experimental animals: SD rats, male, 180-220 g.
Compound preparation: 5% (final preparation volume) of DMSO was added to dissolve the test compound, and then 10% (final preparation volume) of Cremophor EL and 85% Saline were sequentially added; an appropriate amount of Celecoxib was weighed, 5% (final preparation volume) of DMSO was added to dissolve the test compound, and then 5% (final preparation volume) of HS-15 and 90% Saline were sequentially added.
SD rats were anesthetized with isoflurane. The right hind paw was disinfected, a needle was inserted subcutaneously at the posterior plantar aspect, and 50 µL of complete Freund's adjuvant (CFA, 1 mg/mL) was administered via subcutaneous injection at the midplantar region, with the needle withdrawn slowly while rotating to prevent leakage. After modeling, local redness and swelling of the soles of the feet, difficulty in walking, and lifting of the affected feet were observed.
(§1) 2. Administration and test
(§2) The Von Frey test was performed once before the surgery. On the second day after animal modeling, animals meeting the baseline requirements were selected for enrollment. The animals were randomly divided into 6 groups based on the 50% PWT values, with 10 animals per group. Administration was performed under a double-blind test protocol. The 50% PWT of the animals was measured separately before administration (baseline) and at 0.5 h, 2 h, and 8 h after administration. The model control group was given normal saline, while the compound groups were given the compounds according to the administration doses in the table below.

[2] = system: acetic acid writhing model; experiment: Mouse acetic acid writhing model; assay type: in vivo, ICR mice; conditions: ICR mice, Dose 50 mg/kg
Experimental: Experimental Example 11: Pharmacodynamic effect study of compounds in mouse acetic acid writhing model
Experimental animals: ICR mice, male, 20-24 g.
Compound preparation: 5% (final preparation volume) of DMSO was added to dissolve the test compound, and then 10% (final preparation volume) of Cremophor EL and 85% Saline were sequentially added; an appropriate amount of Etoricoxib was weighed, 5% (final preparation volume) of DMSO was added to dissolve the test compound, and then 5% (final preparation volume) of HS-15 and 90% Saline were sequentially added.
• 1. The mice were randomly grouped based on the body weight for model establishment, with 10 animals per group. A 0.8% (v/v) acetic acid solution was intraperitoneally injected at an injection volume of 10 mL/kg. • 2. Administration and test
Administration was performed 60 min before modeling. After the acetic acid solution was injected, the number of writhing responses in mice was observed. […] The number of writhing responses was observed and recorded during two intervals: 0-15 min and 15-30 min, with a total observation duration of 30 min. Inhibition rate = (number of writhing responses in control group - number of writhing responses in administration group)/number of writhing responses in control group × 100%. The model control group was given normal saline, the positive control group 1 was given etoricoxib at 20 mg/kg, the positive control group 2 was given VX-548 at 50 mg/kg, and the remaining groups were given the compounds of the present disclosure according to the administration doses in the table below.

[3] = system: incision pain model; experiment: Incision pain model in SD rats, Von Frey test; assay type: in vivo; conditions: SD rats, Mean + SEM, n = 10
Experimental: Experimental Example 7: Pharmacodynamic effect study of compounds in incision pain model in SD rats
Experimental animals: SD rats, male, 180-220 g.
(§3) Compound preparation: 5% (final preparation volume) of DMSO was added to dissolve the test compound, and then 10% (final preparation volume) of Cremophor EL and 85% Saline were sequentially added.
(§4) A plantar incision pain model was established in rats via surgery before the administration and test. Rats were placed in an anesthesia induction chamber and given 3%-4% isoflurane for anesthesia induction. After the anesthesia induction, a breathing mask was applied, and the isoflurane concentration was adjusted to 1%-2% to prevent the rats from suffering pain during the surgery. Each rat was placed in a supine position, and the surgical site was disinfected with alcohol and iodophor. Under sterile conditions, a 0.5 cm longitudinal incision was made on the left hind paw surface, 0.2 cm away from the heel, extending toward the toes. The skin and fascia were incised; the plantar muscle was separated, slightly lifted, and longitudinally incised. The skin was then sutured with 5-0 sutures and disinfected.
as §1
as §2, with “modeling, the test was repeated, and” for “modeling,”, “h, 4 h, 6 h, or” for “h, and”, “after administration, and a single dose was administered.” for “after administration.”

[4] = system: formalin pain model; experiment: Rat formalin pain model; assay type: in vivo, SD rats; conditions: SD rats, 125 mg/kg p.o. 120 min before 5% formalin, Mean + SD, n = 10
Experimental: Experimental Example 10: Pharmacodynamic effect study of compounds in rat formalin pain model
Experimental animals: SD rats, male, 180-200 g.
Compound preparation: 5% (final preparation volume) of DMSO was added to dissolve the test compound, and then 10% (final preparation volume) of Cremophor EL and 85% Saline were sequentially added; an appropriate amount of Etoricoxib was weighed, 5% (final preparation volume) of DMSO was added to dissolve the test compound, and then 5% (final preparation volume) of HS-15 and 90% Saline were sequentially added; the tramadol injection was diluted with normal saline to the desired concentration.
Each group consisted of 10 animals, and 50 µL of a 5% formalin solution was injected using a microsyringe into the right plantar region.
as §1
Based on different pharmacokinetic properties of the drugs, the administration was performed at 0 min, 60 min, and 120 min before modeling. After injection of the formalin, the number of pain responses in the rats was observed. […] Spontaneous pain responses were observed once every 5 min, and the number of pain responses in the rats within 1 min was counted, with a total observation duration of 60 min. Inhibition rate = (number of pain responses in control group - number of pain responses in administration group)/number of pain responses in control group × 100%.
Table 12. Administration information of compounds of the present disclosure in rat formalin model

[5] = target: T1, Nav1.8 channels (Homo sapiens, UniProt Q9Y5Y9); experiment: Manual patch-clamp, current of stably overexpressed Nav1.8 channels (resting state voltage program); assay type: cell-based
T1 construct: expressed in transfected cells
How it was run: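 Whole-cell manual patch clamp on cells stably overexpressing Nav1.8, held at -120 mV and stepped to 0 mV for 50 ms every 20 s (resting-state protocol). Compounds were perfused in ascending concentrations, each for 5 min or until stable; block of peak current was calculated at steady state.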

[6] = system: incision pain model; experiment: Incision pain model in ICR mice, Von Frey test; assay type: in vivo; conditions: Mean + SEM, n = 10; for PWT 50% value (g) Post-surgery, Preadministration / PWT 50% value (g) Pre-surgery: 50 mg/kg group; for PWT 50% value (g) Post-surgery, Preadministration: baseline before administration; for PWT 50% value (g) Pre-surgery: baseline before surgery; for PWT 50% value (g) 0.5 h / PWT 50% value (g) 2 h / PWT 50% value (g) 4 h: 50 mg/kg single dose; for PWT 50% value (g) 0.5 h: 0.5 h after administration; for PWT 50% value (g) 2 h: 2 h after administration; for PWT 50% value (g) 4 h: 4 h after administration
Experimental: Experimental Example 6: Pharmacodynamic effect study of compounds in incision pain model in ICR mice Experimental animals: ICR mice, male, 28-35 g.
as §3
as §4, with “in mice” for “in rats”, “test. Mice” for “test. Rats”, “the mice” for “the rats”, “Each mouse” for “Each rat”
as §1
as §2, with “modeling, the test was repeated, and” for “modeling,”, “grouped” for “divided into 6 groups”, “4” for “8”, “administration, and a single dose was administered.” for “administration.”

[7] = system: incision pain model; experiment: Incision pain model in ICR mice, Von Frey test; assay type: in vivo; conditions: 50 mg/kg single dose, Mean + SEM, n = 10

T1 sequence (Q9Y5Y9 whole entry): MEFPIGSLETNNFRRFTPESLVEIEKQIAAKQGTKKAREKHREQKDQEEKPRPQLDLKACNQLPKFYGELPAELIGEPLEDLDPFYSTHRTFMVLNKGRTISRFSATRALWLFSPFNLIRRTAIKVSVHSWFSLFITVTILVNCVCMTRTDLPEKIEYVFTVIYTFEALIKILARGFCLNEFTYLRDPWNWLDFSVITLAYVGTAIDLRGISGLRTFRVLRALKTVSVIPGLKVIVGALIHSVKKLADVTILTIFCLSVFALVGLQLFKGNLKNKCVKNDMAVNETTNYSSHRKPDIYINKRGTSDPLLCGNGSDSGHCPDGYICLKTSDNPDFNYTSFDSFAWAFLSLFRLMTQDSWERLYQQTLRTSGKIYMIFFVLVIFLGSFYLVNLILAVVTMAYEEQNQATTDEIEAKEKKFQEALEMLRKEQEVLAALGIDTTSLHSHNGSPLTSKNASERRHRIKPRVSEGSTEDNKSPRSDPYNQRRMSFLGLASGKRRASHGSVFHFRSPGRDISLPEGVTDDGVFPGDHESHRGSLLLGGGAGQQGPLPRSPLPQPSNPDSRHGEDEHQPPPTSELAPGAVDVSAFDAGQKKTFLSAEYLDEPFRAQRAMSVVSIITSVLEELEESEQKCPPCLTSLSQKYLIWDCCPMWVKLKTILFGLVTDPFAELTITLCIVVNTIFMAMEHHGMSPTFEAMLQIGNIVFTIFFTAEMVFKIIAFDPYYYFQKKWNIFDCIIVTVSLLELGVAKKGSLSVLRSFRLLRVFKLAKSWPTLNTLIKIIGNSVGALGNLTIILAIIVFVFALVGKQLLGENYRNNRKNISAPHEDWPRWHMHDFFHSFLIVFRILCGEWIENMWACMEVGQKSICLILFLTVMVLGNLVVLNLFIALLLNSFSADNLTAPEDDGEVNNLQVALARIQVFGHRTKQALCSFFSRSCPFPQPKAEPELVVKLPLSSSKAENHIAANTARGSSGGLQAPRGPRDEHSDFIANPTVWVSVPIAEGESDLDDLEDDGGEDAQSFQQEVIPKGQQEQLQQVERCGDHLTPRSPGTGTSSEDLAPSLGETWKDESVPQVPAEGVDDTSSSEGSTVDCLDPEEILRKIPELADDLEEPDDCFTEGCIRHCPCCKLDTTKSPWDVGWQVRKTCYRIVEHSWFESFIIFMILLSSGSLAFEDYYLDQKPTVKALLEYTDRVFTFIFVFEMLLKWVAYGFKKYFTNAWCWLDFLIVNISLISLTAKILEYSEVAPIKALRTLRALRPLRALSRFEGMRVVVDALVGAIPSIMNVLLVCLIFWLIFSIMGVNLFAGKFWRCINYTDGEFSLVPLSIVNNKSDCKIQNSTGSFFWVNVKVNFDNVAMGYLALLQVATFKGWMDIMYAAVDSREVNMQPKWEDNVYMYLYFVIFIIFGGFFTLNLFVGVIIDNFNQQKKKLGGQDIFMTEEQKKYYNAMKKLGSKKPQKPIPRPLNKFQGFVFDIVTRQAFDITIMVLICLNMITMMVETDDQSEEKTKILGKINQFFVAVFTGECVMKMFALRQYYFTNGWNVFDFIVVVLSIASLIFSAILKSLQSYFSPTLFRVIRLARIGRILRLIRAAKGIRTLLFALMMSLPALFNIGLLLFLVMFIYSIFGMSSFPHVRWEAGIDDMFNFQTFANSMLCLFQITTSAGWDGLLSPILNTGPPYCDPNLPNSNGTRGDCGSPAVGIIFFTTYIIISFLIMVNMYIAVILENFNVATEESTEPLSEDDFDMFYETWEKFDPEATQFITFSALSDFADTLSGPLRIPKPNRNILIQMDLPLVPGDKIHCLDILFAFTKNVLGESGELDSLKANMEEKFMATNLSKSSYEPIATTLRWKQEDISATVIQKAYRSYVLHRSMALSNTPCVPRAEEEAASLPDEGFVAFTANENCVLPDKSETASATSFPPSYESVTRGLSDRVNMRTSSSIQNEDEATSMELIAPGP

## Cc1ccc(-c2cc(C(F)(F)F)nn2-c2ccc(S(N)(=O)=O)cc2)cc1 [Celecoxib, reference compound]
[1]; 80 mg/kg group, baseline before administration
  PWT 50% value (g) Post-surgery, Preadministration: 3.12 ± 1.14 g
[1]; 80 mg/kg group, baseline before modeling
  PWT 50% value (g) Pre-surgery: 11.74 ± 2.33 g
[1]; 80 mg/kg, 0.5 h after administration
  PWT 50% value (g) Time 0.5 h: 5.91 ± 4.09 g
[1]; 80 mg/kg, 2 h after administration
  PWT 50% value (g) Time 2 h: 4.66 ± 1.69 g
[1]; 80 mg/kg, 8 h after administration
  PWT 50% value (g) Time 8 h: 3.4 ± 1.38 g
[1]; 80 mg/kg
  PWT 50% value (g) AUC0-8h: 40.7 ± 15.63 g

## COc1c([C@H]2[C@H](C(=O)Nc3ccnc(C(N)=O)c3)O[C@@](C)(C(F)(F)F)[C@H]2C)ccc(F)c1F [VX-548, reference compound]
[2]; 60 min before 0.8% acetic acid i.p., 30 min observation, Mean + SD, n = 10
  Number of writhing responses: 29±16
[2]; inhibition of writhing responses vs control group
  Inhibition rate (%): 41.24%
[3]; 125 mg/kg group, baseline before administration
  PWT 50% value (g) Post-surgery, Preadministration: 3.95 ± 1.19 g
[3]; 125 mg/kg group, baseline before surgery
  PWT 50% value (g) Pre-surgery: 14.09 ± 1.46 g
[3]; 125 mg/kg single dose, 0.5 h after administration
  PWT 50% value (g) Time 0.5 h: 7.61 ± 5.9 g
[3]; 125 mg/kg single dose, 2 h after administration
  PWT 50% value (g) Time 2 h: 8.97 ± 3.33 g
[3]; 125 mg/kg single dose, 6 h after administration
  PWT 50% value (g) Time 6 h: 6.27 ± 2.34 g
[3]; 125 mg/kg single dose, 8 h after administration
  PWT 50% value (g) Time 8 h: 5.89 ± 2.07 g
[3]; 125 mg/kg single dose
  PWT 50% value (g) AUC0-8h: 58.66 ± 10.33 g
[4]; 0 min
  Number of pain responses 0 min: 24.3±8.5
[4]; 10 min
  Number of pain responses 10 min: 2.4±2.8
[4]; 15 min
  Number of pain responses 15 min: 8.8±6.4
[4]; 30 min
  Number of pain responses 30 min: 13.2±6.3
[4]; 40 min
  Number of pain responses 40 min: 10.1±6.9
[4]; 50 min
  Number of pain responses 50 min: 4.1±4.7
[4]; 60 min
  Number of pain responses 60 min: 4.7±5.6

## COc1c([C@@H]2C[C@](C)(C(F)(F)F)S[C@H]2C(=O)Nc2ccc(NS(N)(=O)=O)c(F)c2)ccc(F)c1F [a-19-A, (2R,3S,5R)-3-(3,4-difluoro-2-methoxyphenyl)-N-[3-fluoro-4-(sulfamoylamino)phenyl]-5-methyl-5-(trifluoromethyl)thiolane-2-carboxamide]
[5]
  IC50: 0.34 nM
[6]
  PWT 50% value (g) Post-surgery, Preadministration: 0.29 ± 0.13 g
  PWT 50% value (g) Pre-surgery: 1.33 ± 0.46 g
  PWT 50% value (g) 0.5 h: 0.47 ± 0.22 g
  PWT 50% value (g) 2 h: 0.51 ± 0.29 g
  PWT 50% value (g) 4 h: 0.44 ± 0.18 g
[7]
  PWT 50% value (g) AUC0-8h: 3.04 ± 0.83 g·h

## COc1c([C@@H]2C[C@](C)(C(F)(F)F)S[C@H]2C(=O)Nc2ccnc(NC#N)c2)ccc(F)c1F [a-34-A, (2R,3S,5R)-N-(2-cyanoaminopyridin-4-yl)-3-(3,4-difluoro-2-methoxyphenyl)-5-methyl-5-(trifluoromethyl)tetrahydrothiophene-2-carboxamide]
[5]
  IC50: 0.04 nM
[6]
  PWT 50% value (g) Post-surgery, Preadministration: 0.24 ± 0.03 g
  PWT 50% value (g) Pre-surgery: 1.41 ± 0.33 g
  PWT 50% value (g) 0.5 h: 0.32 ± 0.15 g
  PWT 50% value (g) 2 h: 0.51 ± 0.15 g
  PWT 50% value (g) 4 h: 0.35 ± 0.16 g
[7]
  PWT 50% value (g) AUC0-8h: 2.81 ± 0.57 g·h
